Assay results published in PubChem BioAssay (NCI).
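96-well plates; 48 h exposure; 5 concentrations. Endpoints by linear interpolation between flanking doses. Not reached: highest tested concentration assigned. GI50: concentration for 50% inhibition of growth. The concentration for full growth arrest is given as TGI.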

Key:
Experiment in all cases: NCI tumour cell line growth inhibition, 48 h
[1] = system: HT29 colon
[2] = system: CAKI-1 renal
[3] = system: RPMI-8226 leukemia
[4] = system: SK-MEL-5 melanoma
[5] = system: HOP-62 NSCLC
[6] = system: CCRF-CEM leukemia
[7] = system: SW-620 colon
[8] = system: SNB-75 CNS
[9] = system: OVCAR-3 ovarian
[10] = system: SF-539 CNS
[11] = system: NCI-H226 lung
[12] = system: OVCAR-8 ovarian
[13] = system: HL-60(TB) leukemia

| Structure (SMILES) | TGI [1] | TGI [2] | TGI [3] | TGI [4] | TGI [5] | TGI [6] | TGI [7] | TGI [8] | TGI [9] | TGI [10] | TGI [11] | TGI [12] | TGI [13] | GI50 [5] | GI50 [9] | GI50 [10] |
| --- | --- | --- | --- | --- | --- | --- | --- | --- | --- | --- | --- | --- | --- | --- | --- | --- |
| N#CC1C(=O)Nc2sc(C(=O)c3ccc(Br)cc3)c(N)c2C12CCCCC2 (stereo not given) | > 100 µM | > 100 µM | > 100 µM | 32.5 µM | > 100 µM | 80.3 µM | 69.4 µM | > 100 µM | 52.7 µM | 42.6 µM | 80.8 µM | > 100 µM | – | – | – | – |
| CCOC(=O)CCC(NC(=O)c1ccc(CNc2nc3cc(N)cc(N)c3nc2-c2ccccc2)cc1)C(=O)OCC (stereo not given) | > 100 µM | > 100 µM | – | > 100 µM | > 100 µM | – | > 100 µM | > 100 µM | > 100 µM | > 100 µM | > 100 µM | > 100 µM | > 45 µM | – | – | – |
| Cc1cc2c(cc1O)CC[C@@H]1[C@@H]2CC[C@]2(C)[C@@H](O)CC[C@@H]12 | 31.6 µM | 59.6 µM | 19.2 µM | 16.1 µM | 24.9 µM | 27.4 µM | 37.5 µM | 23.9 µM | 22.1 µM | 19.8 µM | – | 51.7 µM | 5.54 µM | 10.9 µM | 9.14 µM | 7.46 µM |
| OCCSCCCSCCO | > 100 µM | – | – | > 100 µM | > 100 µM | > 100 µM | > 100 µM | > 100 µM | > 100 µM | > 100 µM | – | > 100 µM | 80.7 µM | – | – | – |
| COC(=O)C1OC(O[C@H]2CC[C@]3(C)[C@H]4CC=C5[C@@H]6CC(C)(C)CC[C@]6(C(=O)OC)[C@H](O)C[C@@]5(C)[C@]4(C)CC[C@H]3C2(C)C)C(O)C(O)C1O (stereo not given in full) | 13.5 µM | 27.2 µM | 27.4 µM | 26.2 µM | 31.1 µM | 21.4 µM | 24.9 µM | 28.1 µM | 22.1 µM | – | 31.7 µM | 27.3 µM | 13.7 µM | – | – | – |
| COC1=CC(=O)C(O)=C(C[C@@]2(C)[C@@H]3CCC[C@H](COC(=O)CCCCCNC(=O)OC(C)(C)C)[C@@]3(C)CC[C@@H]2C)C1=O | > 10 µM | > 10 µM | > 10 µM | > 10 µM | > 10 µM | 5.29 µM | > 10 µM | > 10 µM | > 10 µM | – | > 10 µM | > 10 µM | > 10 µM | – | – | – |
| CC(SC(=S)N1CCCCC1)C(=O)Nc1nnc(-c2ccc(Cl)cc2)o1 (stereo not given) | 54.6 µM | – | 51.5 µM | > 100 µM | > 100 µM | – | > 100 µM | > 100 µM | 64.2 µM | > 100 µM | > 100 µM | > 100 µM | 23.1 µM | – | – | – |
| C[C@@]12CC[C@H]3[C@@H]4CCC(=O)N[C@@]4(C)CC[C@@H]3[C@@]1(C)CC[C@H](OC(=O)Cc1ccc(N(CCCl)CCCl)cc1)C2 | 27.8 µM | 30.5 µM | 56 µM | 27.1 µM | 31.1 µM | 35.1 µM | 34.1 µM | 33.5 µM | 34.6 µM | 33.4 µM | 33.2 µM | 33.1 µM | – | – | – | – |
| CCCCCCOc1ccc(NC2=C(Cl)C(=O)c3cccnc3C2=O)cc1 | 6.66 µM | – | 2.53 µM | 2.31 µM | 5.83 µM | > 10 µM | 3.88 µM | 2.79 µM | 2.85 µM | 4.19 µM | 3.58 µM | 4.56 µM | 3.78 µM | – | – | – |
| CCOC(=O)c1c(C)n(Cc2ccccc2)c2c1cc(O)c1[nH]c3c(c12)CCCC3 | 26.4 µM | 24.5 µM | 4.97 µM | 15 µM | 24.6 µM | 7.4 µM | 13.3 µM | – | 6.2 µM | 5.54 µM | – | 20.6 µM | 5.52 µM | – | – | – |
| N[C@@H]1c2c(Br)sc(Br)c2[C@H](O)[C@@H]1O | > 100 µM | > 100 µM | – | > 100 µM | – | > 100 µM | > 100 µM | > 100 µM | > 100 µM | > 100 µM | > 100 µM | > 100 µM | > 100 µM | – | – | – |
| NC1CC2C3CCC2C1C3=O (stereo not given) | > 100 µM | > 100 µM | – | > 100 µM | > 100 µM | > 100 µM | > 100 µM | > 100 µM | > 100 µM | > 100 µM | > 100 µM | > 100 µM | > 100 µM | – | – | – |
| Cc1cc(Cc2cc(C)c(NC(=O)C(=O)C3C(=O)NC(=S)NC3=O)c(C(C)C)c2)cc(C(C)C)c1NC(=O)C(=O)C1C(=O)NC(=S)NC1=O | > 100 µM | > 100 µM | > 100 µM | – | > 100 µM | > 100 µM | > 100 µM | > 100 µM | > 100 µM | – | > 100 µM | > 100 µM | > 100 µM | – | – | – |
| CCCCCCCCCCCCCCCCCCNc1ccn(C2OC(COP(=O)(O)O)C(O)C2O)c(=O)n1 (stereo not given) | > 100 µM | > 100 µM | > 100 µM | > 100 µM | > 100 µM | > 100 µM | > 100 µM | > 100 µM | > 100 µM | > 100 µM | > 100 µM | > 100 µM | – | – | – | – |
| Cc1cc(C)c2c(n1)S(=O)(=O)N(CCCN1CCN(c3cccc(C(F)(F)F)c3)CC1)/C(=C(\O)c1ccccc1)C2=O | 43.9 µM | 11.9 µM | – | 14.1 µM | > 100 µM | > 100 µM | 29.3 µM | 19.2 µM | 18.1 µM | 98.7 µM | 7.92 µM | > 100 µM | 8.97 µM | – | – | – |
| CN(C)CCNCc1c2ccccc2c(CNCCN(C)C)c2ccccc12 | 40.6 µM | – | > 100 µM | 17.9 µM | 75.5 µM | 88.8 µM | > 73.6 µM | > 100 µM | > 100 µM | > 73.6 µM | 47 µM | > 100 µM | 46.8 µM | – | – | – |
| CN(C)C(=O)CC(C(=O)O)c1c[nH]c2ccccc12 (stereo not given) | > 100 µM | > 100 µM | > 100 µM | > 100 µM | > 100 µM | > 100 µM | > 100 µM | > 100 µM | > 100 µM | > 100 µM | – | > 100 µM | > 100 µM | – | – | – |
